Reference: ChEMBL document CHEMBL4483862, “Open-source discovery of chemical leads for next-generation chemoprotective antimalarials” (2018)

System: Plasmodium berghei
Assay: Luciferase/luciferin-expressing antifolate-resistant parasites were used to infect a culture of HepG2 cells that were pre-incubated with compounds. Infected hepatocytes emit light due to the luciferase reaction. Assay results are presented as the percent inhibition of light emission compared to control. […]
Type: functional
Details: sporozoite; for IC90: read-out: LUCIFERASE INFECTION ASSAY - IC90

Compound	IC90	other results
O=C(NCc1ccc(C(F)(F)F)cc1)Nc1cccc2cnccc12	> 10 µM	IC50 (HEPG2TOX_HILL_SLOPE 1.51, HEPG2TOX_R_SQUARED 0.691, read-out: LUCIFERASE INFECTION ASSAY - IC50): > 10 µM
Cc1ccccc1/C=N/NC(N)=S	> 17.1 µM	IC50 (HEPG2TOX_HILL_SLOPE 1.52, HEPG2TOX_R_SQUARED 0.966, read-out: LUCIFERASE INFECTION ASSAY - IC50): > 17.1 µM
Cc1cccc(N2CCN(C(=O)c3cccc(S(=O)(=O)N4CCc5ccccc5C4)c3)CC2C)c1 (centres undefined)	> 10 µM	IC50 (HEPG2TOX_HILL_SLOPE 1.53, HEPG2TOX_R_SQUARED 0.865, read-out: LUCIFERASE INFECTION ASSAY - IC50): > 10 µM
C=C(C)COc1ccc(-c2[nH]nc(C)c2-c2ccc(OC)c(OC)c2)c(O)c1	1.84 µM	IC50 (HEPG2TOX_HILL_SLOPE 1.51, HEPG2TOX_R_SQUARED 0.867, PBLUC_HILL_SLOPE 1.78, PBLUC_R_SQUARED 0.654, read-out: LUCIFERASE INFECTION ASSAY - IC50): 0.535 µM
Cc1ccc2[nH]c(-c3ccccc3O)nc2c1	1.78 µM	IC50 (HEPG2TOX_HILL_SLOPE 1.55, HEPG2TOX_R_SQUARED 0.794, PBLUC_HILL_SLOPE 15.6, PBLUC_R_SQUARED 0.425, read-out: LUCIFERASE INFECTION ASSAY - IC50): 1.54 µM
O=C(Nc1nnc(C(F)(F)F)s1)c1ccc(F)c(Cl)c1	4.03 µM	IC50 (HEPG2TOX_HILL_SLOPE 1.54, HEPG2TOX_R_SQUARED 0.943, PBLUC_HILL_SLOPE 14.8, PBLUC_R_SQUARED 0.531, read-out: LUCIFERASE INFECTION ASSAY - IC50): 3.48 µM
COc1cc(OC)cc(-c2cnc3cnc(-c4ccccc4N(C)C)cn23)c1	3.18 µM	IC50 (HEPG2TOX_HILL_SLOPE 1.54, HEPG2TOX_R_SQUARED 0.879, PBLUC_HILL_SLOPE 8.17, PBLUC_R_SQUARED 0.657, read-out: LUCIFERASE INFECTION ASSAY - IC50): 2.43 µM
CN(C)c1ccc(-c2cnc3cnc(-c4ccc(CO)cc4)cn23)cc1	> 9.58 µM	IC50 (HEPG2TOX_HILL_SLOPE 1.55, HEPG2TOX_R_SQUARED 0.978, PBLUC_HILL_SLOPE 1.15, PBLUC_R_SQUARED 0.872, read-out: LUCIFERASE INFECTION ASSAY - IC50): 1.58 µM
CC1CCCN(c2ccc(C#N)cn2)C1 (centres undefined)	> 10 µM	IC50 (HEPG2TOX_HILL_SLOPE 1.55, HEPG2TOX_R_SQUARED 0.88, PBLUC_HILL_SLOPE 1.47, PBLUC_R_SQUARED 0.333, read-out: LUCIFERASE INFECTION ASSAY - IC50): > 10 µM
CCN(c1ccc(NC(=S)Nc2cccc3ccccc23)cc1)C(C)C	> 10 µM	IC50 (HEPG2TOX_HILL_SLOPE 1.56, HEPG2TOX_R_SQUARED 0.289, PBLUC_HILL_SLOPE 3.28, PBLUC_R_SQUARED 0.342, read-out: LUCIFERASE INFECTION ASSAY - IC50): 5.97 µM
CCCc1c(C(=O)OCC)cnn1-c1c(Cl)cc(Cl)cc1Cl	> 9.12 µM	IC50 (HEPG2TOX_HILL_SLOPE 1.55, HEPG2TOX_R_SQUARED 0.952, PBLUC_HILL_SLOPE 4.67, PBLUC_R_SQUARED 0.0395, read-out: LUCIFERASE INFECTION ASSAY - IC50): 8.3 µM
Clc1ccc(-c2cn3c(-c4ccc5c(c4)OCO5)cnc3cn2)cc1	6.85 µM	IC50 (HEPG2TOX_HILL_SLOPE 1.51, HEPG2TOX_R_SQUARED 0.989, PBLUC_HILL_SLOPE 1.79, PBLUC_R_SQUARED 0.647, read-out: LUCIFERASE INFECTION ASSAY - IC50): 2.01 µM
c1cncc(-c2nc(Nc3ccc4n[nH]cc4c3)c3ccccc3n2)c1	3.39 µM	IC50 (HEPG2TOX_HILL_SLOPE 1.55, HEPG2TOX_R_SQUARED 0.922, PBLUC_HILL_SLOPE 123, PBLUC_R_SQUARED 0.319, read-out: LUCIFERASE INFECTION ASSAY - IC50): 3.33 µM
Cc1cccc(NC(=O)CSc2nc3ccccc3c3nc(C)nn23)c1	0.789 µM	IC50 (HEPG2TOX_HILL_SLOPE 1.51, HEPG2TOX_R_SQUARED 0.99, PBLUC_HILL_SLOPE 1.83, PBLUC_R_SQUARED 0.897, read-out: LUCIFERASE INFECTION ASSAY - IC50): 0.237 µM
COc1cncc(-c2cnc3sc(NCC4CCOCC4)nn23)c1	1.51 µM	IC50 (HEPG2TOX_HILL_SLOPE 1.52, HEPG2TOX_R_SQUARED 0.935, PBLUC_HILL_SLOPE 11.6, PBLUC_R_SQUARED 0.526, read-out: LUCIFERASE INFECTION ASSAY - IC50): 1.25 µM
CC(=O)c1cccc(-c2cnc3ccc(-c4ccc5c(c4)OCO5)nn23)c1	7.88 µM	IC50 (HEPG2TOX_HILL_SLOPE 1.55, HEPG2TOX_R_SQUARED 0.983, PBLUC_HILL_SLOPE 1.3, PBLUC_R_SQUARED 0.851, read-out: LUCIFERASE INFECTION ASSAY - IC50): 1.46 µM

Compound	IC90	other results
CC(=O)Nc1cccc(Nc2nccc3[nH]c(-c4ccccc4)cc23)c1	0.748 µM	IC50 (HEPG2TOX_HILL_SLOPE 1.53, HEPG2TOX_R_SQUARED 0.824, PBLUC_HILL_SLOPE 2.66, PBLUC_R_SQUARED 0.657, read-out: LUCIFERASE INFECTION ASSAY - IC50): 0.328 µM
C/C(=N\NC(N)=S)c1csc(-c2ccccc2)n1	11.9 µM	IC50 (HEPG2TOX_HILL_SLOPE 1.53, HEPG2TOX_R_SQUARED 0.983, PBLUC_HILL_SLOPE 21.6, PBLUC_R_SQUARED 0.0721, read-out: LUCIFERASE INFECTION ASSAY - IC50): 10.7 µM
O=[N+]([O-])c1ccccc1CS(=O)(=O)c1nc2ccccc2s1	> 9.87 µM	IC50 (HEPG2TOX_HILL_SLOPE 1.54, HEPG2TOX_R_SQUARED 0.3, PBLUC_HILL_SLOPE 1.66, PBLUC_R_SQUARED 0.0862, read-out: LUCIFERASE INFECTION ASSAY - IC50): 5.91 µM
CCOc1ccc(S(=O)(=O)CC2=NCCc3cc(OC)c(OC)cc32)cc1	5.39 µM	IC50 (HEPG2TOX_HILL_SLOPE 1.55, HEPG2TOX_R_SQUARED 0.854, PBLUC_HILL_SLOPE 1.98, PBLUC_R_SQUARED 0.428, read-out: LUCIFERASE INFECTION ASSAY - IC50): 1.78 µM
Cc1ccc(/N=C/c2c(-c3ccccc3Cl)[nH]c3ccccc23)cc1C	4.13 µM	IC50 (HEPG2TOX_HILL_SLOPE 1.53, HEPG2TOX_R_SQUARED 0.955, PBLUC_HILL_SLOPE 2.45, PBLUC_R_SQUARED 0.607, read-out: LUCIFERASE INFECTION ASSAY - IC50): 1.68 µM
N#C/C(=N\Nc1ccc(Cl)cc1)C(=O)c1ccc(Cl)cc1	2.91 µM	IC50 (HEPG2TOX_HILL_SLOPE 1.51, HEPG2TOX_R_SQUARED 0.876, PBLUC_HILL_SLOPE 2.05, PBLUC_R_SQUARED 0.674, read-out: LUCIFERASE INFECTION ASSAY - IC50): 0.996 µM
COc1ccc(-[n+]2c(C)cn3c2CCc2ccccc2-3)cc1	3.96 µM	IC50 (HEPG2TOX_HILL_SLOPE 1.53, HEPG2TOX_R_SQUARED 0.982, PBLUC_HILL_SLOPE 13.1, PBLUC_R_SQUARED 0.299, read-out: LUCIFERASE INFECTION ASSAY - IC50): 3.35 µM
Cc1cccc(CN2CCC3(CC2)C(=O)N(Cc2ccccn2)C(=O)N3CCc2ccccc2)c1	> 7.04 µM	IC50 (HEPG2TOX_HILL_SLOPE 1.55, HEPG2TOX_R_SQUARED 0.857, PBLUC_HILL_SLOPE 4.1, PBLUC_R_SQUARED 0.48, read-out: LUCIFERASE INFECTION ASSAY - IC50): 5.65 µM
Cc1cc(C(=O)Cn2c(CO)nc3ccccc32)c(C)n1-c1ccccc1	> 10 µM	IC50 (HEPG2TOX_HILL_SLOPE 1.51, HEPG2TOX_R_SQUARED 0.587, PBLUC_HILL_SLOPE 1.38, 1.35, PBLUC_R_SQUARED 0.541, 0.883, read-out: LUCIFERASE INFECTION ASSAY - IC50): 3.87 µM
O=C(NC1CCN(c2ccc(S(=O)(=O)C(F)(F)F)cc2)CC1)C1CC1	2.59 µM	IC50 (HEPG2TOX_HILL_SLOPE 1.52, HEPG2TOX_R_SQUARED 0.775, PBLUC_HILL_SLOPE 1.87, PBLUC_R_SQUARED 0.699, read-out: LUCIFERASE INFECTION ASSAY - IC50): 0.799 µM
CNc1nc2cnc(Nc3cccc(C)c3)cc2n1-c1cccc(C(F)(F)F)c1	> 10 µM	IC50 (HEPG2TOX_HILL_SLOPE 1.54, HEPG2TOX_R_SQUARED 0.691, PBLUC_HILL_SLOPE 2.02, PBLUC_R_SQUARED 0.694, read-out: LUCIFERASE INFECTION ASSAY - IC50): 4.3 µM
Fc1cccc(-c2cn3c(-c4ccc5ncccc5c4)cnc3cn2)c1	0.986 µM	IC50 (HEPG2TOX_HILL_SLOPE 1.51, HEPG2TOX_R_SQUARED 0.947, PBLUC_HILL_SLOPE 2.49, PBLUC_R_SQUARED 0.764, read-out: LUCIFERASE INFECTION ASSAY - IC50): 0.408 µM
Cc1ccc(CNc2ncnc3sccc23)cc1	> 10 µM	IC50 (HEPG2TOX_HILL_SLOPE 1.53, HEPG2TOX_R_SQUARED 0.949, PBLUC_HILL_SLOPE 1.13, PBLUC_R_SQUARED 0.759, read-out: LUCIFERASE INFECTION ASSAY - IC50): 3.63 µM
CC(=O)c1cccc(-c2cnc3ccc(-c4cccc(C(N)=O)c4)nn23)c1	0.628 µM	IC50 (HEPG2TOX_HILL_SLOPE 1.55, HEPG2TOX_R_SQUARED 0.943, PBLUC_HILL_SLOPE 2.62, PBLUC_R_SQUARED 0.854, read-out: LUCIFERASE INFECTION ASSAY - IC50): 0.271 µM
COc1cc(CNC(=O)Nc2nc3ccccc3s2)cc(OC)c1OC	> 10 µM	IC50 (HEPG2TOX_HILL_SLOPE 1.53, HEPG2TOX_R_SQUARED 0.847, PBLUC_HILL_SLOPE 0.688, PBLUC_R_SQUARED 0.648, read-out: LUCIFERASE INFECTION ASSAY - IC50): 0.692 µM
S=C(Nc1ccccc1)N1CCCN(c2nc3ccc(Cl)cc3s2)CC1	3.16 µM	IC50 (HEPG2TOX_HILL_SLOPE 1.54, HEPG2TOX_R_SQUARED 0.918, PBLUC_HILL_SLOPE 12.4, PBLUC_R_SQUARED 0.732, read-out: LUCIFERASE INFECTION ASSAY - IC50): 2.65 µM
